The source of these data is ChEMBL document CHEMBL1152309, “Isolation of 2-pyridone alkaloids from a New Zealand marine-derived penicillium species” (J Nat Prod, 2009).

For orientation: IC50 means the point on the concentration scale where inhibition reaches its midpoint. A high value points to lower potency.

The test system of one test is Bacillus subtilis. Put plainly: Antibacterial activity against Bacillus subtilis at 30 ug/disk by disc-diffusion assay. The settings on record: read-out: IZ. The class given is functional. A general note: A growth-free zone around the sample is the usual read-out of agar diffusion tests.
A further test concerns Candida albicans. The experiment in a line: Antifungal activity against Candida albicans at 30 ug/disk by disc-diffusion assay. The settings on record: read-out: IZ. The format is functional.
The next test concerns P388. The experiment in a line: Cytotoxicity against mouse P388 cells. The class given is functional, cell-based.

SMILES strings stand for the structures. Values after ≈ are worked out from the molar mass of the structure shown.

Take `C[C@@H]1C[C@H](C)[C@H]2c3c(ccn(O)c3=O)O[C@H](C)[C@@]2(C)C1`: the results for the zone of inhibition at 30 µg/disc in the test on Bacillus subtilis and with Candida albicans were 8 mm and 11 mm, respectively. For the same compound, the IC50 in the test with P388 came out at 1.8 µg/mL (≈ 6.49 µM). On to `C[C@@H]1C[C@H](C)[C@H]2c3c(cc[nH]c3=O)O[C@H](C)[C@@]2(C)C1`, for which the IC50 in the test with P388 was more than 12.5 µg/mL.

Compound `C[C@@H]1C[C@H](C)[C@@H](c2c(O)cc[nH]c2=O)[C@H](C)[C@@](C)(O)C1` [DEOXYAKANTHOMYCIN] registered an IC50 in the test on P388 of more than 12.5 µg/mL.
